Source: patent publication US20260109672A1, “SARS-COV-2 MPRO INHIBITORS AND USES THEREOF” (NXERA PHARMA UK LIMITED, priority 2022, published 2026)

Target: SARS-CoV-2 Mpro (Severe acute respiratory syndrome coronavirus 2, UniProt P0DTD1)
Test: Modified SARS-CoV-2 Mpro enzyme assay (FRET, kinetic read) for reference examples
Type: biochemical
Conditions: 5 nM Mpro, 20 min preincubation at room temperature, mean n=2, set out in PCT/GB2022/050836

Row | Substance | SARS-CoV-2 Mpro enzyme pKi assay pKi
1 | (1R,2S,5S)-N-(4-(cyclopropylamino)-3,4-dioxo-1-((S)-2-oxopyrrolidin-3-yl)butan-2-yl)-3-((E)-3-(2,4-difluorophenyl)acryloyl)-6,6-dimethyl-3-azabicyclo[3.1.0]hexane-2-carboxamide [Example 7] | 6.7
2 | (1R,2S,5S)-N-(4-(cyclopropylamino)-3,4-dioxo-1-((S)-2-oxopyrrolidin-3-yl)butan-2-yl)-3-((S)-3,3-dimethyl-2-(2,2,2-trifluoroacetamido)butanoyl)-6,6-dimethyl-3-azabicyclo[3.1.0]hexane-2-carboxamide [Example 1] | 7.8
3 | (1R,2S,5S)-N-[1-(cyclopropylmethyl)-3-(methylamino)-2,3-dioxo-propyl]-3-[(2S)-3,3-dimethyl-2-[(2,2,2-trifluoroacetyl)amino]butanoyl]-6,6-dimethyl-3-azabicyclo[3.1.0]hexane-2-carboxamide [Example 2] | 7.3
4 | (1R,2S,5S)-N-[3-(cyclopropylamino)-2,3-dioxo-1-[(3S)-2-oxopyrrolidin-3-yl]methyl]propyl]-3-[(2S)-3,3-dimethyl-2-(2-methylpropanoylamino)butanoyl]-6,6-dimethyl-3-azabicyclo[3.1.0]hexane-2-carboxamide [Example 5] | 6.8
5 | (1R,2S,5S)-N-[3-(cyclopropylamino)-2,3-dioxo-1-[[(3R)-2-oxo-3-piperidyl]methyl]propyl]-3-[(2S)-3,3-dimethyl-2-[(2,2,2-trifluoroacetyl)amino]butanoyl]-6,6-dimethyl-3-azabicyclo[3.1.0]hexane-2-carboxamide [Example 6] | 6.7
6 | (1R,2S,5S)-N-[3-amino-1-(cyclobutylmethyl)-2,3-dioxo-propyl]-3-[(2S)-3,3-dimethyl-2-[(2,2,2-trifluoroacetyl)amino]butanoyl]-6,6-dimethyl-3-azabicyclo[3.1.0]hexane-2-carboxamide [Example 4] | 7.3
7 | (1R,2S,5S)-N-[3-amino-1-(cyclopropylmethyl)-2,3-dioxo-propyl]-6,6-dimethyl-3-[(2S)-3-methyl-2-[(2,2,2-trifluoroacetyl)amino]butanoyl]-3-azabicyclo[3.1.0]hexane-2-carboxamide [Example 3] | 7.1
